Laboratory results as given in ChEMBL document CHEMBL1201862, “PubChem BioAssay data set” (2004).
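Tested at 5 concentrations; 48 h exposure; 96-well plates; endpoints linearly interpolated, else capped at highest concentration. The concentration for 50% growth inhibition is given as GI50.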 Activity calls are given as the source filed them. No stated cut-off is given here; in the data, active = GI50 up to about 1.1 µM and inactive = higher.

Experiments:
Experiment in all cases: NCI anticancer screen, dose series, 48 h
[1] = test system: DMS-273
[2] = test system: SN12C
[3] = test system: SNB-19
[4] = test system: EKVX
[5] = test system: HCT-116
[6] = test system: CAKI-1
[7] = test system: NCI-H460
[8] = test system: NCI-H522
[9] = test system: Malme-3M
[10] = test system: HCC 2998
[11] = test system: K562
[12] = test system: OVCAR-5
[13] = test system: SW-620
[14] = test system: SNB-78
[15] = test system: SK-OV-3
[16] = test system: SK-MEL-5
[17] = test system: RPMI-8226
[18] = test system: TK-10
[19] = test system: COLO 205
[20] = test system: HOP-92
[21] = test system: NCI-H226
[22] = test system: 786-0
[23] = test system: DMS-114
[24] = test system: SR
[25] = test system: U-251
[26] = test system: RXF 393
[27] = test system: OVCAR-3
[28] = test system: KM12
[29] = test system: IGROV-1
[30] = test system: A498
[31] = test system: UACC-257
[32] = test system: SNB-75
[33] = test system: MOLT-4
[34] = test system: OVCAR-8
[35] = test system: SK-MEL-28
[36] = test system: M19-MEL
[37] = test system: HOP-18
[38] = test system: DLD-1
[39] = test system: UO-31
[40] = test system: LXFL 529
[41] = test system: SF-295
[42] = test system: ACHN
[43] = test system: SF-268
[44] = test system: UACC-62
[45] = test system: HT-29
[46] = test system: HL-60
[47] = test system: NCI-H23
[48] = test system: SF-539
[49] = test system: SK-MEL-2
[50] = test system: CCRF-CEM
[51] = test system: A549
[52] = test system: KM-20L2
[53] = test system: HOP-62
[54] = test system: LOX IMVI
[55] = test system: HCT-15
[56] = test system: M14
[57] = test system: OVCAR-4

Measured: GI50

N#CCCC[Si]12OCCN(CCO1)CCO2
inactive: [1] > 100 µM | [2] > 100 µM | [3] > 100 µM | [4] > 100 µM | [5] > 100 µM | [6] > 100 µM | [7] > 100 µM | [8] > 100 µM | [9] > 100 µM | [10] > 100 µM | [11] > 100 µM | [12] > 100 µM | [13] > 100 µM | [14] > 100 µM | [15] > 100 µM | [16] > 100 µM | [17] > 100 µM | [18] > 100 µM | [19] > 100 µM | [20] > 100 µM | [21] > 100 µM | [22] > 100 µM | [23] > 100 µM | [24] > 100 µM | [25] > 100 µM | [26] > 100 µM | [27] > 100 µM | [28] > 100 µM | [29] > 100 µM | [30] > 100 µM | [31] > 100 µM | [32] > 100 µM | [33] > 100 µM | [34] > 100 µM | [35] > 100 µM | [36] > 100 µM | [37] > 100 µM | [38] > 100 µM | [39] > 100 µM | [40] > 100 µM | [41] > 100 µM | [42] > 100 µM | [43] > 100 µM | [44] > 100 µM | [45] > 100 µM | [46] > 100 µM | [47] > 100 µM | [48] > 100 µM | [49] > 100 µM | [50] > 100 µM | [51] > 100 µM

CCOc1ccccc1N1C(=O)C(=O)C(c2nc3ccccc3o2)/C(=N\N)C1=O (centres undefined)
inactive: [1] > 100 µM | [2] > 100 µM | [3] > 100 µM | [4] > 100 µM | [5] 79.8 µM | [52] > 100 µM | [6] > 100 µM | [8] > 100 µM | [9] > 100 µM | [10] > 100 µM | [11] > 100 µM | [12] > 100 µM | [13] > 100 µM | [14] > 100 µM | [53] > 100 µM | [15] > 100 µM | [16] > 100 µM | [17] > 100 µM | [18] 56.5 µM | [19] > 100 µM | [20] > 100 µM | [21] > 100 µM | [22] > 100 µM | [23] > 100 µM | [25] > 100 µM | [26] > 100 µM | [27] > 100 µM | [28] > 100 µM | [29] > 100 µM | [30] > 100 µM | [54] > 100 µM | [31] 49.9 µM | [32] 27.7 µM | [34] > 100 µM | [35] > 100 µM | [36] > 100 µM | [38] > 100 µM | [39] 31.2 µM | [40] > 100 µM | [41] > 100 µM | [42] 88.1 µM | [43] 55 µM | [56] > 100 µM | [44] > 100 µM | [57] 27.1 µM | [45] 70.5 µM | [46] > 100 µM | [47] > 100 µM | [48] > 100 µM | [49] > 100 µM | [50] > 100 µM | [51] > 100 µM
> 100 µM: [55]
